According to patent US6245758A, “Methods of use for peroxynitrite decomposition catalysts, pharmaceutical compositions therefor” (priority 1996, dated 2001):

What was measured:
[1] = Stopped-flow kinetic analysis of catalytic decomposition of peroxynitrite by metal complexes; settings: pH = 7.4, 22° C.
Experimental: To screen metal complexes for peroxynitrite decomposition catalytic activity of the present invention, peroxynitrite is prepared and isolated as its sodium salt by the reaction of acidic hydrogen peroxide with sodium nitrite followed by rapid quenching with NaOH as set out by Halfpenny and Robinson, in J. Chem. So., 1952, 928-938. Peroxynitrite has an absorbance maximum at 302 nm with an extinction coefficient of 1670 M^-1 cm^-1. Therefore, it is possible to directly observe the decomposition of peroxynitrite by stop-flow spectrophotometric analysis by monitoring the decomposition of the absorbance at 302 nm. That is, such observation of the decomposition of peroxynitrite at a rate accelerated over the natural decomposition rate with the addition of the metal complex identifies a compound of the present invention.
Kinetic measurements were made on an OLIS Rapid Scanning Stopped-Flow Spectrometer (On-Line Instrument Systems Inc., Bogart, Ga.)) using the OLISRSM-1000 Operating system for data acquisition and manipulation.
Thus, in a typical experiment the natural background decomposition rate of sodium peroxynitrite was determined as follows. A 24 mM stock solution of sodium peroxynitrite in 50 mM NaOH is load into the small volume syringe and 100 mM potassium phosphate pH=7.4 is charged into the large volume syringe of the stopped-flow spectrophotometer. All stopped -flow measurements were made at 22 ° C. Injection of the solutions into the sample compartment results in ~25 fold dilution of the stock sodium peroxynitrite. […] To test for catalytic peroxynitrite decomposition activity, the metal complex was dissolved in 100 mM potassium phosphate buffer pH=7.4 and loaded into the large syringe and the decomposition of peroxynitrite was monitored as described above. The catalytic rate constant (kcat M-1 sec^-1) for the complexes tested was determined by varying the complex concentration and plotting kobs vs [complex] Table 1. The kobs were obtained from averages of three stopped flow analysis at each catalyst concentration.

[2] = system: carrageenan-induced paw edema; assay: Carrageenan-induced paw edema; type: in vivo, rat
Source text: Carrageenan-induced paw edema. The effects of peroxynitrite catalysts in vivo were initially tested on the carrageenan-induced paw edema. The choice of using this in vivo model of inflammation was based on the knowledge that 1) the inflammatory response is blocked by NOS inhibitors and 2) by superoxide dismutase (SOD). This indicates the participation of both NO and of O2-. Male Sprague Dawley rats were purchased from Harlan Sprague-Dawley (Indianapolis, Ind.). Male Sprague Dawley rats (175-200 g) received a subplantar injection in the right hind paw of carrageenan (0.1 ml of a 1% suspension in 0.85% saline). Paw volume was measured by a plethysmometer immediately before the injection of carrageenan and then at hourly intervals from 1 to 6 h. Edema was expressed as the increase in paw volume (in ml) measured after carrageenan injection compared to the pre-injection value for individual animals.

[3] = Catalysis of dismutation of superoxide; settings: under the assay conditions employed
CuZnSOD = assay: Protection of CuZnSOD from inactivation by peroxynitrite using peroxynitrite decomposition catalysts; type: biochemical, bovine; settings: Fe(III)TMPyP 0.5 and 1.0 uM, Fe(III)TMPS 1.0 and 5.0 uM; peroxynitrite 0-100 uM
Experimental: Assay solutions were prepared as described above except for the addition of various of peroxynitrite decomposition catalyst. The final solution volume was maintained at 10 mL. Thus, to the assay solutions Fe(III)TMPyP (0.5 and 1.0 uM final concentration) and Fe(III)TMPS (1.0 and 5.0 uM final concentration) was added. The solution were then treated with various amounts of peroxynitrite such that the final concentrations of 0,25, 50, 75 and 100 uM were achieved. Following treatment with peroxynitrite EDTA was added to a final concentration of 250 uM. The solutions were then assayed for SOD activity.

rat jejunum [4] = assay: Histological examination of jejunal tissues after LPS; type: in vivo; settings: 30 mg/kg i.v.
rat jejunum [5] = assay: Intestinal vascular permeability (radiolabelled albumin leakage) after endotoxin (LPS); type: in vivo; settings: 30 mg/kg, i.v, 3 h after LPS; determined 1 h later
Experimental: FIG. 10 . Effects of FeTMPS, FeTMPyP or ZnTMPyP (30 mg/kg, i.v bolus) administered 3 h after challenge with E. coli lipopolysaccharide (LPS, 3 mg/kg, i.v bolus) on the increase in leakage of radio-labelled albumin (plasma extravasation, μl/g tissue) observed 1 h later (e.g 4 h after LPS challenge) in the rat jejunum. Results are shown as mean±s.e.m of 4-8 rats.
Intestinal vascular permeability was determined as the leakage into the jejunal tissue of [^125 I]-labelled bovine serum albumin ([^125 ]-BSA) administered intravenously (0.5 ml; 0.5 μCi) together with either LPS (3 mg/kg, serotype O111:B4) or isotonic saline. At 4 h after LPS administration, segments of jejunal tissue were ligated and removed. The intestinal tissues were rapidly washed, blotted dry and weighed. Blood (0.5 ml) was collected into tubes containing tri-sodium citrate (0.318% final concentration) and plasma prepared by centrifugation (10,000 g×10 min). The {^125 I]-BSA content in segments of whole tissue and in aliquots of plasma (100 μl) was determined in a gamma counter. The total content of plasma in the intestinal tissues was expressed as μl/g tissue. Changes in intravascular volume in the intestinal tissue was determined in an additional group of rats by administering ([^125 I]-BSA) intravenously 2 min before removal of the jejunum. The tissue and plasma content of radiolabel was determined and intravascular volume expressed as μl/g tissue. This value was substracted from that obtained in the plasma leakage studies to obtain a measure of the intestinal plasma albumin leakage. After LPS administration (4 h), there was a significant (P<0.01) increase in the plasma leakage (from 77±10 to 224±18 μl/g tissue, n=8).

[6] = 3 mg/kg i.v., 1 h post carrageenan
[7] = 3 mg/kg i.v., 2 h post carrageenan
[8] = 3 mg/kg i.v., 3 h post carrageenan
[9] = 3 mg/kg i.v., 4 h post carrageenan
[10] = 3 mg/kg i.v., 5 h post carrageenan
[11] = 3 mg/kg i.v., 6 h post carrageenan
[12] = 10 mg/kg i.v., 1 h post carrageenan
[13] = 10 mg/kg i.v., 2 h post carrageenan
[14] = 10 mg/kg i.v., 3 h post carrageenan
[15] = 10 mg/kg i.v., 4 h post carrageenan
[16] = 10 mg/kg i.v., 5 h post carrageenan
[17] = 10 mg/kg i.v., 6 h post carrageenan
[18] = 30 mg/kg i.v., 1 h post carrageenan
[19] = 30 mg/kg i.v., 2 h post carrageenan
[20] = 30 mg/kg i.v., 3 h post carrageenan
[21] = 30 mg/kg i.v., 4 h post carrageenan
[22] = 30 mg/kg i.v., 5 h post carrageenan
[23] = 30 mg/kg i.v., 6 h post carrageenan

CC(=O)[O-].Cc1c(-c2c3nc(c(-c4c(C)c(S(=O)(=O)[O-])c(C)c(S(=O)(=O)[O-])c4C)c4ccc([n-]4)c(-c4c(C)c(S(=O)(=O)[O-])c(C)c(S(=O)(=O)[O-])c4C)c4nc(c(-c5c(C)c(S(=O)(=O)[O-])c(C)c(S(=O)(=O)[O-])c5C)c5ccc2[n-]5)C=C4)C=C3)c(C)c(S(=O)(=O)[O-])c(C)c1S(=O)(=O)[O-].[Fe+3].[Na+].[Na+].[Na+].[Na+].[Na+].[Na+].[Na+].[Na+] [Fe(III)TMPS, Acetato-5,10,15,20-tetrakis(3,5-disulfonatomesityl)porphyrin Iron (III) octasodium salt]
kcat, catalytic rate constant for the decomposition of sodium peroxynitrite [1]: 160000 M⁻¹ s⁻¹
% Inhibition of Paw Edema [2, 6]: 0%
% Inhibition of Paw Edema [2, 7]: 42%
% Inhibition of Paw Edema [2, 8]: 47%
% Inhibition of Paw Edema [2, 9]: 47%
% Inhibition of Paw Edema [2, 10]: 33%
% Inhibition of Paw Edema [2, 11]: 33%
% Inhibition of Paw Edema [2, 12]: 0%
% Inhibition of Paw Edema [2, 13]: 61%
% Inhibition of Paw Edema [2, 14]: 60%
% Inhibition of Paw Edema [2, 15]: 53%
% Inhibition of Paw Edema [2, 16]: 53%
% Inhibition of Paw Edema [2, 17]: 47%
% Inhibition of Paw Edema [2, 18]: 0%
% Inhibition of Paw Edema [2, 19]: 85%
% Inhibition of Paw Edema [2, 20]: 80%
% Inhibition of Paw Edema [2, 21]: 80%
% Inhibition of Paw Edema [2, 22]: 80%
% Inhibition of Paw Edema [2, 23]: 81%
catalysis of the dismutation of superoxide [3]: not to be effective catalysts for the dismutation of superoxide
protection of CuZnSOD against inactivation by peroxynitrite (CuZnSOD): concentration dependant protection of CuZnSOD against inactivation by peroxynitrite
LPS-induced jejunal damage (histology) (rat jejunum [4]): LPS-induced damage was less severe
radiolabelled albumin leakage (rat jejunum [5]): caused a reduction in radiolabelled albumin leakage

CC(=O)[O-].C[n+]1ccc(-c2c3nc(c(-c4cc[n+](C)cc4)c4ccc([n-]4)c(-c4cc[n+](C)cc4)c4nc(c(-c5cc[n+](C)cc5)c5ccc2[n-]5)C=C4)C=C3)cc1.Cc1ccc(S(=O)(=O)[O-])cc1.Cc1ccc(S(=O)(=O)[O-])cc1.Cc1ccc(S(=O)(=O)[O-])cc1.Cc1ccc(S(=O)(=O)[O-])cc1.[Fe+3] [Fe(III)TMPyP, Acetato (5,10,15,20-tetrakis(N-methyl-4-pyridyl)porphinato) iron (III) tetra-tosylate]
kcat, catalytic rate constant for the decomposition of sodium peroxynitrite [1]: 2.75e+06 M⁻¹ s⁻¹
% Inhibition of Paw Edema [2, 6]: 0%
% Inhibition of Paw Edema [2, 7]: 9%
% Inhibition of Paw Edema [2, 8]: 10%
% Inhibition of Paw Edema [2, 9]: 17%
% Inhibition of Paw Edema [2, 10]: 6%
% Inhibition of Paw Edema [2, 11]: 0%
% Inhibition of Paw Edema [2, 12]: 6%
% Inhibition of Paw Edema [2, 13]: 13%
% Inhibition of Paw Edema [2, 14]: 11%
% Inhibition of Paw Edema [2, 15]: 28%
% Inhibition of Paw Edema [2, 16]: 21%
% Inhibition of Paw Edema [2, 17]: 2%
% Inhibition of Paw Edema [2, 18]: 0%
% Inhibition of Paw Edema [2, 19]: 44%
% Inhibition of Paw Edema [2, 20]: 43%
% Inhibition of Paw Edema [2, 21]: 50%
% Inhibition of Paw Edema [2, 22]: 32%
% Inhibition of Paw Edema [2, 23]: 32%
catalysis of the dismutation of superoxide [3]: not to be effective catalysts for the dismutation of superoxide
protection of CuZnSOD against inactivation by peroxynitrite (CuZnSOD): concentration dependant protection of CuZnSOD against inactivation by peroxynitrite
LPS-induced jejunal damage (histology) (rat jejunum [4]): LPS-induced damage was less severe
radiolabelled albumin leakage (rat jejunum [5]): caused a reduction in radiolabelled albumin leakage
